For 33 compounds, Kd results are on record in patent publication US20240197694A1, “MODIFIED PROTEINS AND PROTEIN BINDERS” (Cullgen (Shanghai), Inc., priority 2021, published 2024).

T1 sequence (Q9Y4B6 1058-1396): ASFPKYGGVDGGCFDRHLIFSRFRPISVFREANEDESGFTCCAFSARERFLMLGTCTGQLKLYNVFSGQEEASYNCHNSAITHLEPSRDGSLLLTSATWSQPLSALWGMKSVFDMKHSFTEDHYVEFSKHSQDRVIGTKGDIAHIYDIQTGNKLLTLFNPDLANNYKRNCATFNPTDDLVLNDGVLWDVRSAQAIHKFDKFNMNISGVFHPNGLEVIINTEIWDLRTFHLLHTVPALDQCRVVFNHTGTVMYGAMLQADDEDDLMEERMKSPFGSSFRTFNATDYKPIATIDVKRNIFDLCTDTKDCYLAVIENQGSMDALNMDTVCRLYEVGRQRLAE

The experiment has as its target T1, DCAF1 (1058-1396) (Homo sapiens, UniProt Q9Y4B6).
T1 construct: a fragment of a DCAF1 protein that includes amino acid residues A1058 to E1396; His6 (N, cleaved yes); made in house; host or cells: Sf9 insect cells (Bac-to-Bac baculovirus, pFastBacHT vector)
The experiment can be described thus: Surface plasmon resonance (SPR) binding assay, compound binding to DCAF1. Conditions: immobilized DCAF1 (1058-1396), steady state affinity model, 25° C. On the procedure: Binding affinities of specific exemplary compounds to DCAF1 (1058-1396), which is a fragment of a DCAF1 protein that includes amino acid residues A1058 to E1396 were determined by a surface plasmon resonance (SPR) assay. Briefly, purified DCAF1 (1058-1396) proteins were immobilized at a density of 9,000-11,000 resonance units (RUs) on a CMS sensor chip. Sensorgrams were recorded at different concentrations of compounds in multi-cycle kinetic format. Data were analyzed using a steady state affinity model through Biacore Evaluation Software to provide equivalent dissociation constants (Kd).
Binding affinities of compounds to DCAF1 were determined by a surface plasmon resonance (SPR) assay. Purified DCAF1 (1058-1396) proteins were immobilized on a CMS sensor chip, and a dose range of compound solutions were injected in multi-cycle kinetic format. Data were analyzed using a steady state model to provide equivalent dissociation constants (Kd).
Protein Expression and Purification: Human DCAF1 (1058-1396) (UniPro: Q9Y4B6) coding sequences were cloned into pFastBacHT vector and were expressed in Sf9 cells using Bac-to-Bac baculovirus expression system (Thermo Fisher Scientific). The expression construct for DCAF1 (1058-1396) included a N-terminal His6-tag to facilitate the purification. DCAF1 (1058-1396) proteins were obtained from supernatants of cell lysates and purified through sequential application of Ni affinity chromatography (Ni-NTA column, Bio-Rad), Tag removal using TEV protease, and size-exclusion chromatography (Superdex 200 column, GE Healthcare).
Surface plasmon resonance (SPR) binding assays: SPR studies were performed on a Biacore X100 plus or T200 instrument (GE Healthcare). Immobilization of purified DCAF1 (1058-1396) was carried out at 25° C. using a CMS sensor chip. The surface was pre-equilibrated in HBS-EP running buffer (10 mM HEPES, pH 7.4, 150 mM NaCl, 3 mM EDTA, 0.05% P20), before being activated with EDC/NHS. DCAF1 (1058-1396) was immobilized through amino groups to a density of 9,000-12,000 resonance units (RUs) on flow cell channel 2 (FC2), whereas flow cell channel 1 (FC1) was used as reference. Both DCAF1 immobilized and reference surfaces were deactivated with 1 M ethanolamine.
Interaction experiments were performed at 25° C. The compounds were prepared and serially diluted in HBS-EP running buffer containing final 2% DMSO (6-point two-fold serial dilution, 100 μM -3.125 μM final concentration of compounds). Compound Solutions were injected individually in multi-cycle kinetic format without regeneration (flow rate 30 μL/min, association time 60 s, dissociation time 60 s). Sensorgrams from reference surfaces and blank injections were subtracted from the raw data (double-referenced) and the data was solvent-corrected prior to analysis. Data were analyzed using a steady state affinity model through Biacore Evaluation Software to provide equivalent dissociation constants (Kd).
The compound `CN1CCc2c(c3ccccc3n2CCC(N)=O)C1` [CPD-060, 3-(2-methyl-1,2,3,4-tetrahydro-5H-pyrido[4,3-b]indol-5-yl)propanamide] yielded a Kd of 70 to 100 µM. For the compound `Cc1ccc2c(c1)[C@H]1CN(C)CC[C@H]1N2` (racemic) [CPD-033, cis-2,8-dimethyl-2,3,4,4a,5,9b-hexahydro-1H-pyrido[4,3-b]indole], the Kd was above 100 µM.

Consider `CN1Cc2ccccc2CC1CNC(=O)c1nc(=N)[nH]c2c1CCCC2` (stereo not drawn) [CPD-092, 2-imino-N-((2-methyl-1,2,3,4-tetrahydroisoquinolin-3-yl)methyl)-1,2,5,6,7,8-hexahydroquinazoline-4-carboxamide], for which the Kd is 40 to 70 µM. In the case of `Nc1nc(CCN2CCc3[nH]c4ccc(F)cc4c3C2)cs1` [CPD-053, 4-(2-(8-fluoro-1,3,4,5-tetrahydro-2H-pyrido[4,3-b]indol-2-yl)ethyl)thiazol-2-amine] it was 40 to 70 µM.

The compound `NCCCCCCn1cccc1CNCc1ccncc1` [CPD-005, 6-(2-(((pyridin-4-ylmethyl)amino)methyl)-1H-pyrrol-1-yl)hexan-1-amine] yielded a Kd of 40 to 70 µM. In the case of `Cc1cc(N)n(CC(=O)N(C)CC2Cc3ccccc3CN2C)n1` (stereo not drawn) [CPD-093, 2-(5-amino-3-methyl-1H-pyrazol-1-yl)-N-methyl-N-((2-methyl-1,2,3,4-tetrahydroisoquinolin-3-yl)methyl)acetamide] it was 40 to 70 µM; in that of `C#CCNC(=O)CCN1CCc2[nH]c3ccc(F)cc3c2C1` [CPD-052, 3-(8-fluoro-1,3,4,5-tetrahydro-2H-pyrido[4,3-b]indol-2-yl)-N-(prop-2-yn-1-yl)propanamide], 40 to 70 µM.

In turn, `Cc1ccc(CNCc2cnc[nH]2)o1` [CPD-024, N-((1H-imidazol-5-yl)methyl)-1-(5-methylfuran-2-yl) methanamine] showed a Kd above 100 µM. In the case of `Cc1ccc2c(c1)[C@H]1CN(C)CC[C@H]1N2C` (racemic) [CPD-036, cis-2,5,8-trimethyl-2,3,4,4a,5,9b-hexahydro-1H-pyrido [4,3-b]indole] it was above 100 µM; in that of `Clc1ccc2[nH]c3c(c2c1)CN(CCc1cnn[nH]1)CC3` [CPD-008, 2-(2-(1H-1,2,3-triazol-5-yl)ethyl)-8-chloro-2,3,4,5-tetrahydro-1H-pyrido[4,3-b]indole], 40 to 70 µM; in that of `CN1Cc2ccccc2CC1CNC(=O)Nc1ccc2c(c1)nnn2C` (stereo not drawn) [CPD-096, 1-((2-methyl-1,2,3,4-tetrahydroisoquinolin-3-yl)methyl)-3-(1-methyl-1H-benzo [d][1,2,3]triazol-5-yl)urea], above 100 µM. In the case of `COc1nn(C)cc1C(=O)N1c2ccc(C)cc2C2CN(C)CCC21` (stereo not drawn) [CPD-070, (2,8-dimethyl-1,2,3,4,4a,9b-hexahydro-5H-pyrido[4,3-b]indol-5-yl)(3-methoxy-1-methyl-1H-pyrazol-4-yl)methanone] it was above 100 µM; in that of `Cc1ccc2c(c1)C1CN(C)CCC1N2C(=O)/C=C/c1ccc2c(c1)OCO2` (stereo not drawn) [CPD-086, (E)-3-(benzo[d][1,3]dioxol-5-yl)-1-(2,8-dimethyl-1,2,3,4,4a,9b-hexahydro-5H-pyrido[4,3-b]indol-5-yl) prop-2-en-1-one], above 100 µM; in that of `Cc1cccc2c1[C@H]1CN(C)CC[C@H]1N2` (racemic) [CPD-041, cis-2,9-dimethyl-2,3,4,4a,5,9b-hexahydro-1H-pyrido[4,3-b]indole], above 100 µM. Regarding `Cc1ccc2[nH]c3c(c2c1)CN(CCc1cnn[nH]1)CC3` [CPD-013, 2-(2-(1H-1,2,3-triazol-5-yl)ethyl)-8-methyl-2,3,4,5-tetrahydro-1H-pyrido[4,3-b]indole], the dissociation constant Kd is 40 to 70 µM.

The compound `Cc1cccc2c1[C@@H]1CN(C)CC[C@H]1N2` (racemic) [CPD-039, trans-2,9-dimethyl-2,3,4,4a,5,9b-hexahydro-1H-pyrido [4,3-b]indole] had a Kd above 100 µM. The same measure for `COC(=O)NCCN1CCc2ccccc2C1` [CPD-023, methyl (2-(3,4-dihydroisoquinolin-2(1H)-yl)ethyl)carbamate]: 70 to 100 µM; for `O=C(NCCn1ncc2ccccc2c1=O)C1Cc2ccccc2CN1` (stereo not drawn) [CPD-098, N-(2-(1-oxophthalazin-2(1H)-yl)ethyl)-1,2,3,4-tetrahydroisoquinoline-3-carboxamide]: 40 to 70 µM. `OCCOc1ccc(CNCc2cnc[nH]2)cc1` [CPD-031, 2-(4-((((1H-imidazol-5-yl)methyl)amino)methyl)phenoxy)ethan-1-ol] gave a Kd above 100 µM.

Consider `Cc1ccc2[nH]c3c(c2c1)CN(CC1(CC(=O)O)CC1)CC3` [CPD-055, 2-(1-((8-methyl-1,3,4,5-tetrahydro-2H-pyrido[4,3-b]indol-2-yl)methyl)cyclopropyl) acetic acid], for which the Kd was above 100 µM. The same measure for `O=C(CN1CCc2[nH]c3ccc(Cl)cc3c2C1)N1CCOCC1` [CPD-044, 2-(8-chloro-1,3,4,5-tetrahydro-2H-pyrido[4,3-b]indol-2-yl)-1-morpholinoethan-1-one]: 40 to 70 µM; for `COc1cc(C)ccc1C(=O)N1c2ccc(C)cc2C2CN(C)CCC21` (stereo not drawn) [CPD-067, (2,8-dimethyl-1,2,3,4,4a,9b-hexahydro-5H-pyrido[4,3-b]indol-5-yl)(2-methoxy-4-methylphenyl)methanone]: above 100 µM; for `OCCCNCc1cccn1-c1ccccc1` [CPD-101, 3-(((1-phenyl-1H-pyrrol-2-yl)methyl)amino)propan-1-ol]: above 100 µM. The same measure for `NCCCCCCn1cccc1C(=O)NCc1ccncc1` [CPD-004, 1-(6-aminohexyl)-N-(pyridin-4-ylmethyl)-1H-pyrrole-2-carboxamide]: 40 to 70 µM; for `Clc1cc(CNCc2cnc[nH]2)cc2c1OCO2` [CPD-030, N-((1H-imidazol-5-yl)methyl)-1-(7-chlorobenzo[d][1,3]dioxol-5-yl)methanamine]: above 100 µM. In the case of `NCCCCCCn1c2c(c3cc(F)ccc31)CN(CCc1cnn[nH]1)CC2` [CPD-014, 6-(2-(2-(1H-1,2,3-triazol-5-yl)ethyl)-8-fluoro-1,2,3,4-tetrahydro-5H-pyrido[4,3-b]indol-5-yl)hexan-1-amine] it was 40 to 70 µM.

Consider `Cc1ccc2c(c1)C1CN(C)CCC1N2C(=O)/C=C/c1cccc(C(F)(F)F)c1` (stereo not drawn) [CPD-075, (E)-1-(2,8-dimethyl-1,2,3,4,4a,9b-hexahydro-5H-pyrido [4,3-b]indol-5-yl)-3-(3-(trifluoromethyl)phenyl)prop-2-en-1-one], for which the Kd is above 100 µM. The same measure for `O=C(CCN1CCc2[nH]c3ccc(Cl)cc3c2C1)N1CCOCC1` [CPD-049, 3-(8-chloro-1,3,4,5-tetrahydro-2H-pyrido[4,3-b]indol-2-yl)-1-morpholinopropan-1-one]: at most 40 µM.

Take `Cc1cccc2c1[C@H]1CN(C)CC[C@H]1N2C` (racemic) [CPD-042, cis-2,5,9-trimethyl-2,3,4,4a,5,9b-hexahydro-1H-pyrido[4,3-b]indole]: the Kd was above 100 µM.

In turn, `COc1ccc(/C=C/C(=O)N2c3ccc(C)cc3C3CN(C)CCC32)cc1` (stereo not drawn) [CPD-085, (E)-1-(2,8-dimethyl-1,2,3,4,4a,9b-hexahydro-5H-pyrido [4,3-b]indol-5-yl)-3-(4-methoxyphenyl)prop-2-en-1-one] gave a Kd above 100 µM. In the case of `Cc1nc(N)nc(C)c1CC(=O)NCC1Cc2ccccc2CN1C` (stereo not drawn) [CPD-094, 2-(2-amino-4,6-dimethylpyrimidin-5-yl)-N-((2-methyl-1,2,3,4-tetrahydroisoquinolin-3-yl)methyl)acetamide], the Kd fell in the range of 40 to 70 µM. In the case of `CN(CC1Cc2ccccc2CN1C)C(=O)Cn1cnc2ccccc21` (stereo not drawn) [CPD-095, 2-(1H-benzo[d]imidazol-1-yl)-N-methyl-N-((2-methyl-1,2,3,4-tetrahydroisoquinolin-3-yl)methyl)acetamide] it was 40 to 70 µM; in that of `Cc1ccc2c(c1)C1CN(C)CCC1N2C(=O)/C(=C/c1ccc(Cl)cc1)c1ccc(F)cc1` (stereo not drawn) [CPD-088, (E)-3-(4-chlorophenyl)-1-(2,8-dimethyl-1,2,3,4,4a,9b-hexahydro-5H-pyrido[4,3-b]indol-5-yl)-2-(4-fluorophenyl)prop-2-en-1-one], 40 to 70 µM.

The Kd is the free concentration of one partner at which half of the binding sites on the other are occupied at equilibrium, for simple one-to-one binding. A lower Kd goes with higher affinity.
